In PubChem BioAssay (NCI):
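Dose response: 5 concentrations. Exposure: 48 h. Format: 96-well plates. Endpoint: linear interpolation; highest concentration if not reached. The concentration for 50% growth inhibition is given as GI50. At the TGI there is no net growth.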

Columns and labels:
Assay in all cases: NCI tumour cell line growth inhibition, 48 h
[1] = system: 786-0 renal
[2] = system: A498 renal
[3] = system: A549 NSCLC
[4] = system: ACHN renal
[5] = system: BT-549 breast
[6] = system: CCRF-CEM leukemia
[7] = system: COLO 205 colon
[8] = system: DU-145 prostate
[9] = system: EKVX NSCLC
[10] = system: HCC-2998 colon
[11] = system: HCT-116 colon
[12] = system: HCT-15 colon
[13] = system: HL-60(TB) leukemia
[14] = system: HOP-62 NSCLC
[15] = system: HOP-92 NSCLC
[16] = system: HS 578T breast
[17] = system: HT29 colon
[18] = system: IGROV1 ovarian
[19] = system: K-562 leukemia
[20] = system: KM12 colon
[21] = system: LOX IMVI melanoma
[22] = system: M14 melanoma
[23] = system: MALME-3M melanoma
[24] = system: MCF7 breast
[25] = system: MDA-MB-231 breast
[26] = system: MDA-MB-435
[27] = system: MOLT-4 leukemia
[28] = system: NCI-H23 lung
[29] = system: NCI-H460 lung
[30] = system: NCI-H522 lung
[31] = system: NCI/ADR-RES ovarian
[32] = system: OVCAR-3 ovarian
[33] = system: OVCAR-4 ovarian
[34] = system: OVCAR-5 ovarian
[35] = system: OVCAR-8 ovarian
[36] = system: PC-3 prostate
[37] = system: RPMI-8226 leukemia
[38] = system: RXF 393 renal
[39] = system: SF-268 CNS
[40] = system: SF-295 CNS
[41] = system: SF-539 CNS
[42] = system: SK-MEL-2 melanoma
[43] = system: SK-MEL-28 melanoma
[44] = system: SK-MEL-5 melanoma
[45] = system: SK-OV-3 ovarian
[46] = system: SN12C renal
[47] = system: SNB-19 CNS
[48] = system: SNB-75 CNS
[49] = system: SR leukemia
[50] = system: SW-620 colon
[51] = system: T-47D breast
[52] = system: TK-10 renal
[53] = system: U251 CNS
[54] = system: UACC-257 melanoma
[55] = system: UACC-62 melanoma
[56] = system: UO-31 renal
[57] = system: CAKI-1 renal
[58] = system: NCI-H226 lung

`C=CCn1c(SCC(=O)Nc2ccc(C(=O)/C=C/c3cc(OC)c(OC)c(OC)c3)cc2)nnc1-c1cc(OC)c(OC)c(OC)c1` gave a GI50 [1] of 1.85 µM, a TGI [1] of 4.01 µM and a GI50 [2] of 7.4 µM. It also gave a TGI [2] of 20.3 µM, a GI50 [3] of 6.46 µM and a TGI [3] of 36.5 µM. The GI50 [4] was 4.16 µM, the TGI [4] was 20.6 µM and the GI50 [5] was 2.14 µM. The TGI [5] was 6.25 µM, the GI50 [6] was 3.33 µM and the TGI [6] was > 100 µM. The GI50 [7] was 4.94 µM, the TGI [7] was 24.7 µM and the GI50 [8] was 6.09 µM. The TGI [8] was > 100 µM, the GI50 [9] was 4.03 µM and the TGI [9] was 33.8 µM. It also gave a GI50 [10] of 2.05 µM, a TGI [10] of 4.48 µM and a GI50 [11] of 2.09 µM. The TGI [11] was 5.12 µM, the GI50 [12] was 1.86 µM and the TGI [12] was 5.61 µM. It also gave a GI50 [13] of 2.88 µM, a TGI [13] of 33 µM and a GI50 [14] of 5.17 µM. The TGI [14] was 37.9 µM, the GI50 [15] was 12.5 µM and the TGI [15] was 56.6 µM. For the same molecule, the GI50 [16] was 4.66 µM, the TGI [16] was > 100 µM and the GI50 [17] was 2.66 µM. The TGI [17] was 6.14 µM, the GI50 [18] was 3.42 µM and the TGI [18] was 18.4 µM. For the same molecule, the GI50 [19] was 3.44 µM, the TGI [19] was > 100 µM and the GI50 [20] was 2.82 µM. The TGI [20] was 8.18 µM, the GI50 [21] was 2.3 µM and the TGI [21] was 6.53 µM. The GI50 [22] was 2.96 µM, the TGI [22] was 11.8 µM and the GI50 [23] was 11.1 µM. It also gave a TGI [23] of 64.4 µM, a GI50 [24] of 1.83 µM and a TGI [24] of 10.5 µM. The GI50 [25] was 3.81 µM, the TGI [25] was > 100 µM and the GI50 [26] was 2.72 µM. The TGI [26] was 10.7 µM, the GI50 [27] was 4.22 µM and the TGI [27] was > 100 µM. It also gave a GI50 [28] of 3.41 µM, a TGI [28] of 26 µM and a GI50 [29] of 3.76 µM. It also gave a TGI [29] of 14.5 µM, a GI50 [30] of 6.89 µM and a TGI [30] of 27.2 µM. The GI50 [31] was 15.3 µM, the TGI [31] was > 100 µM and the GI50 [32] was 2.98 µM. The TGI [32] was 8.46 µM, the GI50 [33] was 5.67 µM and the TGI [33] was 38.6 µM. It also gave a GI50 [34] of 3.97 µM, a TGI [34] of 28.1 µM and a GI50 [35] of 5.94 µM. It also gave a TGI [35] of 34.9 µM, a GI50 [36] of 4.29 µM and a TGI [36] of 22.6 µM. It also gave a GI50 [37] of 1.51 µM, a TGI [37] of 4.91 µM and a GI50 [38] of 2.16 µM. The TGI [38] was 4.65 µM, the GI50 [39] was 3.99 µM and the TGI [39] was 64.6 µM. The GI50 [40] was 5.25 µM, the TGI [40] was > 100 µM and the GI50 [41] was 2.52 µM. The TGI [41] was 8.83 µM, the GI50 [42] was 14.8 µM and the TGI [42] was 45.3 µM. For the same molecule, the GI50 [43] was 3.29 µM, the TGI [43] was 32.3 µM and the GI50 [44] was 4.27 µM. It also gave a TGI [44] of 16 µM, a GI50 [45] of 5.08 µM and a TGI [45] of 21.2 µM. For the same molecule, the GI50 [46] was 4.74 µM, the TGI [46] was > 100 µM and the GI50 [47] was 4.3 µM. The TGI [47] was 73.2 µM, the GI50 [48] was 2.71 µM and the TGI [48] was 27.6 µM. The GI50 [49] was 2.34 µM, the TGI [49] was > 100 µM and the GI50 [50] was 3.37 µM. For the same molecule, the TGI [50] was 16 µM, the GI50 [51] was 5.44 µM and the TGI [51] was 40.7 µM. It also gave a GI50 [52] of 23.3 µM, a TGI [52] of 58.8 µM and a GI50 [53] of 2.15 µM. For the same molecule, the TGI [53] was 5.38 µM, the GI50 [54] was 7.45 µM and the TGI [54] was 36 µM. It also gave a GI50 [55] of 3.31 µM, a TGI [55] of 17.5 µM and a GI50 [56] of 4.18 µM. For the same molecule, the TGI [56] was 17.5 µM.
For `COc1ccccc1C1C(C#N)=C(N)SC(N)=C1C#N`, the GI50 [2] was > 100 µM, the TGI [2] was > 100 µM and the GI50 [3] was > 100 µM. For the same molecule, the TGI [3] was > 100 µM, the GI50 [4] was 65.1 µM and the TGI [4] was > 100 µM. The GI50 [5] was 55.6 µM, the TGI [5] was > 100 µM and the GI50 [57] was 7.71 µM. The TGI [57] was > 100 µM, the GI50 [6] was 26.6 µM and the TGI [6] was 70.4 µM. For the same molecule, the GI50 [7] was > 100 µM, the TGI [7] was > 100 µM and the GI50 [8] was 41.3 µM. For the same molecule, the TGI [8] was > 100 µM, the GI50 [9] was > 100 µM and the TGI [9] was > 100 µM. The GI50 [10] was > 100 µM, the TGI [10] was > 100 µM and the GI50 [11] was 43.8 µM. The TGI [11] was > 100 µM, the GI50 [12] was 81.3 µM and the TGI [12] was > 100 µM. For the same molecule, the GI50 [13] was 50.3 µM, the TGI [13] was > 100 µM and the GI50 [14] was > 100 µM. The TGI [14] was > 100 µM, the GI50 [15] was 47.1 µM and the TGI [15] was > 100 µM. The GI50 [16] was > 100 µM, the TGI [16] was > 100 µM and the GI50 [17] was 37.4 µM. For the same molecule, the TGI [17] was > 100 µM, the GI50 [18] was 11.1 µM and the TGI [18] was 70 µM. For the same molecule, the GI50 [19] was 41.8 µM, the TGI [19] was > 100 µM and the GI50 [20] was 37.8 µM. For the same molecule, the TGI [20] was > 100 µM, the GI50 [21] was 50.2 µM and the TGI [21] was > 100 µM. For the same molecule, the GI50 [22] was 91.6 µM, the TGI [22] was > 100 µM and the GI50 [23] was 81.3 µM. The TGI [23] was > 100 µM, the GI50 [24] was 30.6 µM and the TGI [24] was > 100 µM. For the same molecule, the GI50 [25] was 21.6 µM, the TGI [25] was 60.7 µM and the GI50 [26] was 52.8 µM. The TGI [26] was > 100 µM, the GI50 [27] was 45 µM and the TGI [27] was > 100 µM. For the same molecule, the GI50 [58] was 25.6 µM, the TGI [58] was 75.8 µM and the GI50 [28] was 97 µM. For the same molecule, the TGI [28] was > 100 µM, the GI50 [29] was 49.8 µM and the TGI [29] was > 100 µM. For the same molecule, the GI50 [30] was 29.9 µM, the TGI [30] was 76.2 µM and the GI50 [31] was 43.9 µM. For the same molecule, the TGI [31] was > 100 µM, the GI50 [32] was 62.4 µM and the TGI [32] was > 100 µM. For the same molecule, the GI50 [33] was 81.1 µM, the TGI [33] was > 100 µM and the GI50 [34] was > 100 µM. For the same molecule, the TGI [34] was > 100 µM, the GI50 [35] was 90.4 µM and the TGI [35] was > 100 µM. The GI50 [37] was 12.3 µM, the TGI [37] was 32.9 µM and the GI50 [38] was > 100 µM. For the same molecule, the TGI [38] was > 100 µM, the GI50 [39] was 48.9 µM and the TGI [39] was > 100 µM. The GI50 [40] was 67 µM, the TGI [40] was > 100 µM and the GI50 [41] was 90.7 µM. The TGI [41] was > 100 µM, the GI50 [42] was > 100 µM and the TGI [42] was > 100 µM. For the same molecule, the GI50 [43] was 43.3 µM, the TGI [43] was > 100 µM and the GI50 [44] was 90.5 µM. For the same molecule, the TGI [44] was > 100 µM, the GI50 [45] was > 100 µM and the TGI [45] was > 100 µM. For the same molecule, the GI50 [46] was 15.5 µM, the TGI [46] was 42 µM and the GI50 [47] was > 100 µM. The TGI [47] was > 100 µM, the GI50 [48] was 39.2 µM and the TGI [48] was > 100 µM. For the same molecule, the GI50 [49] was 16.3 µM, the TGI [49] was 83 µM and the GI50 [50] was > 100 µM. The TGI [50] was > 100 µM, the GI50 [51] was 35.5 µM and the TGI [51] was > 100 µM. For the same molecule, the GI50 [52] was > 100 µM, the TGI [52] was > 100 µM and the GI50 [53] was 54 µM. The TGI [53] was > 100 µM, the GI50 [54] was > 100 µM and the TGI [54] was > 100 µM. The GI50 [56] was 82.5 µM and the TGI [56] was > 100 µM.
